In the CATMoS acute toxicity set (Mansouri et al. 2021):

Test: GHS categories as the set defines them, by LD50: 1 up to 5, 2 up to 50, 3 up to 300, 4 up to 2000, 5 above 2000 mg/kg
Conditions: rat; in vivo; po

Structure (SMILES)	GHS category
CCCC(=O)OCCC(C)C	5
CCCC1OC(Cn2cncn2)(c2cc3ccccc3o2)OCC1(C)C (configuration not stated)	4
COC(=O)CCCCCCCCCC[Si](C)(C)Cl	5
CC(=O)CC(=O)Nc1cc(C)c(NC(=O)CC(C)=O)cc1C	5
CCCCCCC(C)(C)c1cc(O)c2c(c1)OC(C)(C)[C@@H]1CCC(=O)C[C@@H]21	4
Cc1nn(-c2ccc3cc(-c4ccccc4)c(=O)oc3c2)nc1-c1ccccc1	5
CCCc1c(Cc2ccc(-c3ccccc3-c3nn[nH]n3)cc2)c(N=[N+]=[N-])nc2ncnn12	4
Nc1nccnc1C(=O)O	5
CCC(C)C(=O)OCCc1ccccc1 (configuration not stated)	5
CC/C=C\CCCCCCCCOC(C)=O	5
CC1CCCO1 (configuration not stated)	4
O=C1CC(Nc2ccc([N+](=O)[O-])cc2)=NN1c1c(Cl)cc(Cl)cc1Cl	5
C=CCN1C(=O)CCc2c(OCC(O)CN3CCC(Cc4ccccc4)CC3)cccc21 (configuration not stated)	4
CN1CC(O)N(c2cc(C(C)(C)C)on2)C1=O (configuration not stated)	4
N#CC1CCCC2OCC(c3ccccc3)N12 (configuration not stated)	5
CCCCCCCCCCCC(=O)N(CC)CC	5
Cc1nnc(SCCCSc2nnnn2C)o1	4
C#CCOc1cc(-n2nc(C(C)(C)C)oc2=O)c(Cl)cc1Cl	5
NC(=O)Oc1ccc(Cl)cc1C(=O)Oc1ccccc1	5
Clc1ccc(Oc2cccc(Cl)c2)cc1	5
CCO[Si](CCCSSCCC[Si](OCC)(OCC)OCC)(OCC)OCC	5
COc1ccc(C(=O)C2CC2)cc1	4
CC(=O)OC[C@H]1O[C@@](COC(C)=O)(O[C@H]2O[C@H](COC(C)=O)[C@@H](OC(C)=O)[C@H](OC(C)=O)[C@H]2OC(C)=O)[C@@H](OC(C)=O)[C@@H]1OC(C)=O	5
CCCc1c(Cc2ccc(-c3ccccc3-c3nn[nH]n3)cc2)c(=O)nc2nc(N)[nH]n12	4
Cc1ccc(I)cc1Cc1ccc(-c2ccc(F)cc2)s1	5
O=C(Nc1ccc(F)cc1F)c1cccnc1Oc1cccc(C(F)(F)F)c1	5

Structure (SMILES)	GHS category
O=[N+]([O-])c1ccc2c(c1)COP(=S)(N1CCCC1)O2 (configuration not stated)	3
NC(N)=N[C@@H](CS)C(=O)O	5
CCC/C=C/COC(=O)CC	5
Cn1nnnc1SCCCC(=O)NCc1ccco1	4
CCCCCCCCCCCOC(=O)c1ccccc1C(=O)OCCCCCCCCCCC	5
CCC(=O)O[C@]1(C(C)=O)CC[C@H]2[C@@H]3CCC4=CC(=O)C=C[C@]4(C)[C@H]3[C@@H](O)C[C@@]21C	5
FC(F)(F)C(F)(F)C(F)(F)C(F)(F)C(F)(F)C(F)(F)F	5
O=S(=O)(O)c1ccc(Nc2nc(Cl)nc(Cl)n2)cc1	5
CCOC(=O)Oc1c(OC)cc(C(=O)O[C@@H]2C[C@@H]3CN4CCc5c([nH]c6cc(OC)ccc56)[C@H]4C[C@@H]3[C@H](C(=O)OC)[C@H]2OC)cc1OC	5
CC(=O)OCOC(=O)C1=C(COC(N)=O)SC2C(C(C)O)C(=O)N12 (configuration not stated)	5
CCOc1nc2cccc(C(=O)O)c2n1Cc1ccc(-c2ccccc2-c2nnn[nH]2)cc1	5
CN1C[C@H](c2ccnn2C)CC2c3cccc4[nH]cc(c34)C[C@H]21 (some centres not stated)	4
O=c1c2n[nH]nc2nc2sc(CCC3CCCCC3)nn12	5
COC(=O)C1=C(C)NC(C)=C(C(=O)OC2COC3C(O)COC23)C1c1cccc([N+](=O)[O-])c1 (configuration not stated)	5
CC(=O)OC1CCC2C3CCC4CC(=O)CCC4(C)C3CCC12C (configuration not stated)	5
COc1ccc2c(c1)CCN(c1ccccc1)C2c1ccc(OCc2ccccc2)cc1 (configuration not stated)	4
COc1ccccc1NC(=O)c1cc2ccccc2c(N=Nc2ccc(C(N)=O)cc2)c1O	5
CNC(=O)C(=NNc1cccc(Cl)c1)C(C)=O	5
CC1(C)S[C@@H]2[C@H](NC(=O)[C@H](N)c3ccccc3)C(=O)N2[C@H]1C(=O)OCOC(=O)[C@@H]1N2C(=O)C[C@H]2S(=O)(=O)C1(C)C	5
O=C(O)CCCCCNc1nc(NCCCCCC(=O)O)nc(NCCCCCC(=O)O)n1	5
O=C(O)c1ccccc1N1C(=O)C(Cl)C1c1ccccc1 (configuration not stated)	4
CC(=O)OCC(=O)[C@@]1(OC(C)=O)CC[C@H]2[C@@H]3C[C@@H](F)C4=CC(=O)C(Br)=C[C@]4(C)[C@@]3(F)[C@@H](O)C[C@@]21C	5
Cc1nn(C)c(O)c1C(=O)c1ccc(C(F)(F)F)cc1S(C)(=O)=O	5
COC(=O)c1ccc(N2CCC(c3ccc(Cl)cc3)=N2)cc1	5
CC1=NN(c2cccc(S(=O)(=O)O)c2)C(=O)C1	5
NC(=O)OC[C@@H]1[C@H](NC(=O)/C(=N\OCC(=O)O)c2csc(N)n2)C(=O)N1S(=O)(=O)O	5

Structure (SMILES)	GHS category
CC(C)CCCCCCCCCCCCCC=CC1CC(=O)OC1=O (configuration not stated)	5
CC1(C)S[C@@H]2[C@H](/N=C/N3CCCCCC3)C(=O)N2[C@H]1C(=O)O	5
OC[C@H]1O[C@@H](OC[C@H]2O[C@@H](O[C@@H]3[C@@H](O)[C@H](O)O[C@H](CO)[C@H]3O)[C@H](O)[C@@H](O[C@@H]3O[C@H](CO)[C@@H](O)[C@H](O)[C@H]3O)[C@@H]2O)[C@H](O)[C@@H](O)[C@@H]1O	4
CC(C)(C)CC(C)(C)c1cc(-n2nc3ccccc3n2)c(O)c(C(C)(C)c2ccccc2)c1	5
CNc1ncnc2c1ncn2Cc1ccccc1F	4
CCCCCCC(O)CCO (configuration not stated)	5
CCCCCCCCCCCCCCCCCC(=O)OCC	5
CCOC(=O)c1ccnc(C(=O)OCC)c1	5
CC/C=C\CCOC(=O)C/C=C\CC	5
CC(CCC(=O)O)C1CCC2C3C(OS(=O)(=O)O)CC4CC(OS(=O)(=O)O)CCC4(C)C3CCC12C (configuration not stated)	5
Nc1ccc(F)cc1-c1ccc(Cl)c(Cl)c1	5
O=C1CC(c2ccccc2)c2cc(Br)ccc2O1 (configuration not stated)	5
Clc1ccc(CN2CCN=C2c2ccccc2)cc1	4
CC(C)CCCCCCCOCCC#N	5
CC(=O)Nc1ccc2cc(S(=O)(=O)O)c(N=Nc3ccc(S(=O)(=O)CCOS(=O)(=O)O)cc3)c(O)c2c1	5
CC1=CC1	5
Cc1ccc(Nc2ccc(Nc3ccc(C)cc3S(=O)(=O)O)c3c2C(=O)c2ccccc2C3=O)c(S(=O)(=O)O)c1	5
NS(=O)(=O)c1cc2c(cc1Cl)NC(Cc1ccccc1)NS2(=O)=O (configuration not stated)	5
CC(C)CCC[C@@H](C)[C@H]1CC[C@H]2[C@@H]3CC[C@H]4C[C@H](O)CC[C@]4(C)[C@H]3CC[C@]12C	4
CCCCCCCCCCCCC1=C(OC(C)=O)C(=O)c2ccccc2C1=O	5
CCCCCC(=O)[Si](C)(C)C	5
O=P(OCC(CBr)(CBr)CBr)(OCC(CBr)(CBr)CBr)OCC(CBr)(CBr)CBr	5
O=C(c1ccc(Oc2ccccc2)cc1)c1ccc(C(=O)c2ccc(Oc3ccccc3)cc2)cc1	5
C=CC1=C(C(=O)O)N2C(=O)[C@@H](NC(=O)/C(=N\O)c3csc(N)n3)[C@H]2SC1	5
CCCC1CCCC(=O)O1 (configuration not stated)	5
Cc1ccc(O)c(/N=N/c2ccccc2[N+](=O)[O-])c1	5

Structure (SMILES)	GHS category
CCCC(=O)OCCC(C)CCCC(C)C (configuration not stated)	5
CCC(C)(C)OC(=O)N[C@@H](Cc1c[nH]c2ccccc12)C(=O)N[C@@H](CCSC)C(=O)N[C@@H](CC(=O)O)C(=O)N[C@@H](Cc1ccccc1)C(N)=O	5
CC(=O)C(N=Nc1cccc(OCCOc2ccccc2N=NC(C(C)=O)C(=O)Nc2ccc3[nH]c(=O)[nH]c3c2)c1)C(=O)Nc1ccc2[nH]c(=O)[nH]c2c1 (configuration not stated)	5
COc1ccc2cc([C@H](C)C(=O)OCCN3CCN(CCOC(=O)[C@@H](C)c4ccc5cc(OC)ccc5c4)CC3)ccc2c1	5
C=C(C)C(=O)OCC(CC)CCCC (configuration not stated)	5
CCCCCCCCC=CCCCCCCOC(C)=O	5
CCN(CCCSc1nnnn1C)C(=O)C1CCCC1	4
CC(=O)Nc1cc2cccnc2c(N2CCN(CCO)CC2)n1	5
O=C(Nc1ccc2[nH]c(=O)[nH]c2c1)c1cc2ccccc2c(N=Nc2cc(Cl)ccc2Cl)c1O	5
CCCCCCCCC(C)C(C)CCCCCCCC (configuration not stated)	5
N#CC(CCc1ccc(Cl)cc1)(Cn1cncn1)c1ccccc1 (configuration not stated)	5
CN(C)C(=O)c1cc(C(=O)N(C)C)c2c(n1)C(=O)C(=O)c1cc(C(=O)N(C)C)[nH]c1-2	5
N[C@@H](Cc1c[nH]c2ccccc12)C(=O)O	5
Cc1cc(NC(=O)C2=C(O)c3ccccc3S(=O)(=O)N2C)no1	5
CS(C)(=O)=O	5
CC(C)(C)c1ccc2oc(-c3ccc(-c4nc5cc(C(C)(C)C)ccc5o4)s3)nc2c1	5
CC1(C)[C@@H](O[C@H]2O[C@H](C(=O)O)[C@@H](O)[C@H](O)[C@H]2O[C@@H]2O[C@H](C(=O)O)[C@@H](O)[C@H](O)[C@H]2O)CC[C@]2(C)[C@H]3C(=O)C=C4[C@@H]5C[C@@](C)(C(=O)O)CC[C@]5(C)CC[C@@]4(C)[C@]3(C)CC[C@@H]12	5
Brc1nc[nH]c1Br	4
CC(=O)OCC(=O)[C@@]1(OC(C)=O)[C@@H](C)C[C@H]2[C@@H]3C[C@H](F)C4=CC(=O)C=C[C@]4(C)[C@@]3(F)[C@@H](O)C[C@@]21C	5
CCCCCCCCCCCCOCCOCCOCCOCCOCCOCCOCCOCCOCCOCCOCCOCCOCCOCCOCCOCCOCCOCCOCCOCCOCCOCCOCCO	5
CC(C)Oc1cccc(NC(=O)c2ccccc2C(F)(F)F)c1	5
C=C1c2cccc(O)c2C(=O)C2=C(O)[C@]3(O)C(=O)C(C(N)=O)=C(O)[C@@H](N(C)C)[C@@H]3[C@@H](O)[C@H]12	5
CC1(C)S[C@@H]2[C@H](NC(=O)C(c3ccccc3)S(=O)(=O)O)C(=O)N2[C@H]1C(=O)O (some centres not stated)	5
O=C1NC(=O)C(c2ccccc2)(c2ccccc2O)N1 (configuration not stated)	5
